Measurements reported in patent US6714815B2, “Method for the iontophoretic non-invasive determination of the in vivo concentration level of an inorganic or organic substance” (The Regents of the University of California, priority 1988, dated 2004).
Where a name gives a salt, the structure may show the parent alone. Each block holds one compound with its values, some of them ahead of it.

Tests used:
[1] = Experimental: FIG. 5—The iontophoretic sampling was extended to another neutral bioactive molecule: ethanol.
An identical protocol to that employed for glucose experiments is followed. The only difference being in the concentration of ethanol in the dermal side. A concentration of 17 mM was used as this corresponds to a 0.08% solution, the maximum blood alcohol level legally allowed.
Radioactivity was again used to measure the extracted ethanol. The dermal side using radioactive ethanol, [1-14C]

[2] = In-vitro iontophoretic delivery of P.S.O.S. in the diffusion cell; format: in vitro ADME
Experimental: (b) P.S.O.S. (Potassium Sucrose Octa Sulfate) P.S.O.S., 0.6 ml of 1.5 mg/ml solution in a boric buffer is placed in chamber 16A and boric acid buffer alone is placed in chamber 16C of FIGS. 1, 2 or 3. Using a direct current of 0.5 mA (0.65 mA/cm^2) transport of P.S.O.S is observed up to 5 μg/hr.

[3] = forearm of a person; compared with in vitro case
[4] = remark: listed apart in the source
Experimental: Drugs—Clonidine HCl (Sigma Chemical Co., St. Louis, Mo.); Clonidine-HCl (phenyl-4-^3H) of specific activity 90 mCi/mg (Amersham, Arlington Heights, Ill.). […] The non-labelled drugs were dissolved in deionized water to form solutions of 1 mg/ml, with enough labelled drug to achieve an activity of approximately […].
Skin (13)—Full-thickness skin, freshly excised from 11-15 week old female hairless mice (strain Skh:HR-1, Simonsen Laboratory, Gilroy, Calif.).
Testing of the Modeling Cell—The diffusion cell 10 was tested in three ways:
(1) Leakage tests (without current) using dye and silicone rubber than skin; (2) leakage tests using dye and skin (without current); and (3) iontophoretic tests using the drug solutions and skin (with and without current). Procedures (1) and (2) were evaluated by visually inspecting the cell. For procedure (3), 0.6 ml of labelled drug solution was placed in chamber 16A, 0.6 ml of buffered saline was pipetted into chamber 16C, and a constant current of 0.63 mA/cm^2 (with the voltage limited at 9 V) was imposed between the electrodes in the two chambers. The activity of the solutions in chambers 16A and 16C was determined before and after iontophoresis. The activity of the skin 13 and of the samples taken from the receptor chamber was determined post-experimentally. Each experiment lasts approximately 24 hours, ±2 hours, with samples collected hourly. Receptor fluid 17 was magnetically stirred (27), and the collection flow rate was 10 ml/hr. Each procedure was, repeated three times.

[5] = female, Skh:HR-1 hairless, mouse, 1 mg/ml

passive flux ([1]; ethanol 17 mM on the dermal side, no current): large passive flux | metabolism during iontophoretic sampling ([1]; preliminary experiments): does not seem to be metabolized
SMILES: CCO [ethanol]
amount of ethanol extracted iontophoretically ([1]; ethanol 17 mM on the dermal side, compared with glucose): far greater than that obtained with glucose | cathodal versus anodal concentration ([1]; preliminary experiments): cathodal concentration is greater than anodal

SMILES: O=S(=O)([O-])OC[C@H]1O[C@@](COS(=O)(=O)[O-])(O[C@H]2O[C@H](COS(=O)(=O)[O-])[C@@H](OS(=O)(=O)[O-])[C@H](OS(=O)(=O)[O-])[C@H]2OS(=O)(=O)[O-])[C@@H](OS(=O)(=O)[O-])[C@@H]1OS(=O)(=O)[O-].[K+].[K+].[K+].[K+].[K+].[K+].[K+].[K+] [P.S.O.S, Potassium Sucrose Octa Sulfate]
transport of P.S.O.S ([2]; direct current of 0.5 mA (0.65 mA/cm^2), 0.6 ml of 1.5 mg/ml in boric buffer in chamber 16A): up to 5 μg/hr | P.S.O.S transferred ([2]; same experimental configuration, printed 'with a current'): only a few nanograms

drug in the buffered saline of chamber 16C [4]: no drug was found | mean rate of diffusion into the receptor phase (passive transport rate) [4, 5]: 0.05 μg/cm^2/hr | rate of penetration through the skin [4, 5]: 15.0 μg/cm^2/hr | labelled drug detected in the buffered saline of chamber 16C ([4]; female, Skh:HR-1 hairless, mouse, 20 h, 1 mg/ml): 5 µg
SMILES: Clc1cccc(Cl)c1N=C1NCCN1 [clonidine-HCl, Clonidine HCl]
amount of clonidine sampled [3]: comparable to that observed in the in vitro case
